Source: patent publication US11040981B2, “Pyrrolotriazine compounds and methods of inhibiting TAM kinases” (Syros Pharmaceuticals, Inc., priority 2017, dated 2021)

Key:
MERTK = target: T1, MERTK (Homo sapiens, UniProt Q12866); assay: TR-FRET kinase activity assay, MERTK; format: biochemical; conditions: for IC50: TR-FRET activity assay, ATP at Km, 60 minutes, read-out: Mer IC50; for FLT3/Mer ratio (FLT3 IC50/Mer IC50): ratio of Mer to FLT3: FLT3 IC50/Mer IC50
T1 sequence (Q12866 21-999): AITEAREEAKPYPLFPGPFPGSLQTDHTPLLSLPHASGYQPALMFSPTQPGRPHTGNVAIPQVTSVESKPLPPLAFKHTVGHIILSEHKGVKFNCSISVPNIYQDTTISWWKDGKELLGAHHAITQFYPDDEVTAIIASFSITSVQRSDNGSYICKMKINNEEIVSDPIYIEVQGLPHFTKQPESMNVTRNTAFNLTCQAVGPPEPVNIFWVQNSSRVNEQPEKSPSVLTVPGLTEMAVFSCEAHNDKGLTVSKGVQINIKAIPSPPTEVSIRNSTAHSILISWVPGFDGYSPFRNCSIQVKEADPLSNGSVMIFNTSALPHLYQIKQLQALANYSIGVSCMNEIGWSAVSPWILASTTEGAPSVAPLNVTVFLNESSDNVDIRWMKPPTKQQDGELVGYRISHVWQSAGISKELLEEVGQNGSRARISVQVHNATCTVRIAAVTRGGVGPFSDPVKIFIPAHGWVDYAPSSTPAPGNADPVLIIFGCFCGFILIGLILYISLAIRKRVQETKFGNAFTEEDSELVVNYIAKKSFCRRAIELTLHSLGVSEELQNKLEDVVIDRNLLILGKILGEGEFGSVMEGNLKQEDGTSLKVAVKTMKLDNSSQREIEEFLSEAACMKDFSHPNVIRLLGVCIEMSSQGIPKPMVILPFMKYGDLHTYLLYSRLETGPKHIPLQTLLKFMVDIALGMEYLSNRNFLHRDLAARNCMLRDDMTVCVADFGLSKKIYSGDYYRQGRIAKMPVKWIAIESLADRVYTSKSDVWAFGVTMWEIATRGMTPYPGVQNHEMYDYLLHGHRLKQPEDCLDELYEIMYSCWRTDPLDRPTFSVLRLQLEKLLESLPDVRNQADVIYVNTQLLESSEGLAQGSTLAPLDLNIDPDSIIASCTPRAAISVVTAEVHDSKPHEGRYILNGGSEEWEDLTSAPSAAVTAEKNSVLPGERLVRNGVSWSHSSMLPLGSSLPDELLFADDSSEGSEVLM
In short: (§1)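 Recombinant human kinases, fluorescent peptide substrate, ATP at Km; 1 h RT, pH 7.5. EDTA-quenched, Eu antibody added, TR-FRET read; IC50 determined.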

TYRO3 = target: T2, TYRO3 (Homo sapiens, UniProt Q06418); assay: TR-FRET kinase activity assay, TYRO3; format: biochemical; conditions: ATP at Km, 60 minutes
T2 sequence (Q06418 41-890): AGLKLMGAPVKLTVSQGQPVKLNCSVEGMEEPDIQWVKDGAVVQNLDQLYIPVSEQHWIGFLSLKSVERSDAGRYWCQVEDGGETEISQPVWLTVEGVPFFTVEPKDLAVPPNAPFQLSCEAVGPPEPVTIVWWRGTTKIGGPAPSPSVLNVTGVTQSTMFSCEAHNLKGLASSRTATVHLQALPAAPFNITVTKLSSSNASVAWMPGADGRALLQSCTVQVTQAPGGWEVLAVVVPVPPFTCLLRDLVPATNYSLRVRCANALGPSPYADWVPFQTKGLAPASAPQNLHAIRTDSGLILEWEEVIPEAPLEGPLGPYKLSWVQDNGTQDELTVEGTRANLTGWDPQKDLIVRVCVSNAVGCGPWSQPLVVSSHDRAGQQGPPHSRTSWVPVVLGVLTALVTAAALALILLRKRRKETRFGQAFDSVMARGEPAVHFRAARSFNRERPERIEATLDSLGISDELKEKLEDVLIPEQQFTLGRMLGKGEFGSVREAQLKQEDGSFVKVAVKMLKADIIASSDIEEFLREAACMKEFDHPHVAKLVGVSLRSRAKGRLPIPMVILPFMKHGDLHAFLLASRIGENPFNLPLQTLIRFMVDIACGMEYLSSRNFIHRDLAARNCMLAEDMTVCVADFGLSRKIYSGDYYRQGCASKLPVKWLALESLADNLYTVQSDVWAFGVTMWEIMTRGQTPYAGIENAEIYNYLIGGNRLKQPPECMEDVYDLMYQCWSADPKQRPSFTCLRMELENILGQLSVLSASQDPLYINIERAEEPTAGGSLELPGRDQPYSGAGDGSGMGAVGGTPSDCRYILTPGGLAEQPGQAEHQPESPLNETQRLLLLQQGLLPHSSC
In short: as §1

Structure (SMILES) | IC50 (MERTK) | FLT3/Mer ratio (FLT3 IC50/Mer IC50) (MERTK) | IC50 (TYRO3)
CN1CCN(Cc2ccc(-c3cc(C4CCC(O)CC4)n4nc(NC5CCC5(C)C)ncc34)cc2)CC1 (mixture of isomers) [Compound 121] | ≤ 100 nM | ++ (“++” represents a ratio of between 10 and 100) | ≤ 100 nM
COCC(C)Nc1ncc2c(C3CCN(C(C)=O)C3)cc(C3CCC(O)CC3)n2n1 (mixture of isomers) [Compound 383] | ≤ 100 nM | +++ (“+++” represents a ratio of >100) | ≤ 100 nM
COC[C@H](C)Nc1ncc2c(-c3ccc(CN4CCN(C)CC4)cc3)cc([C@H]3CC[C@H](O)CC3)n2n1 (single isomer, unassigned) [Compound 124] | ≤ 100 nM | ++ (“++” represents a ratio of between 10 and 100) | ≤ 100 nM
CCCCC[C@H](C)Nc1ncc2c(C3=CCC(C(=O)O)CC3)cc([C@H]3CC[C@H](O)CC3)n2n1 (stereo partly drawn) [Compound 122, 4-(2-((S)-heptan-2-ylamino)-7-((trans)-4-hydroxycyclohexyl)pyrrolo[2,1-f][1,2,4]triazin-5-yl)cyclohex-3-enecarboxylic acid] | ≤ 100 nM | +++ (“+++” represents a ratio of >100) | ≤ 100 nM
CCC(C)Nc1ncc2c(C)cc(C3CCC(O)CC3)n2n1 (stereo not drawn) [Compound 123] | ≤ 100 nM | +++ (“+++” represents a ratio of >100) | 100 to 1000 nM
CCCCC[C@H](C)Nc1ncc2c([C@H]3CC[C@@H](C(=O)O)CC3)cc([C@H]3CC[C@H](O)CC3)n2n1 [Compound 125, (cis)-4-(2-((S)-heptan-2-ylamino)-7-((trans)-4-hydroxycyclohexyl)pyrrolo[2,1-f][1,2,4]triazin-5-yl)cyclohexanecarboxylic acid] | ≤ 100 nM | ++ (“++” represents a ratio of between 10 and 100) | 100 to 1000 nM
CNC(=O)c1ncc(-c2cc([C@H]3CC[C@H](O)CC3)n3nc(N[C@@H](C)CC(F)(F)F)ncc23)cn1 [Compound 347] | ≤ 100 nM | +++ (“+++” represents a ratio of >100) | ≤ 100 nM
COC[C@H](C)Nc1ncc2c(-c3cnn([C@H]4CCNC4=O)c3)cc([C@H]3CC[C@H](O)CC3)n2n1 [Compound 348] | ≤ 100 nM | +++ (“+++” represents a ratio of >100) | ≤ 100 nM
COC[C@H](C)Nc1ncc2c(-c3cc([C@H]4CC[C@H](O)CC4)n4nc(N[C@@H](C)COC)ncc34)cc([C@H]3CC[C@H](O)CC3)n2n1 [Compound 349] | ≤ 100 nM | +++ (“+++” represents a ratio of >100) | ≤ 100 nM
C[C@@H](CC(F)F)Nc1ncc2c(-c3cnn(C4COC4)c3)cc([C@H]3CC[C@H](O)CC3)n2n1 [Compound 351] | ≤ 100 nM | ++ (“++” represents a ratio of between 10 and 100) | ≤ 100 nM
CC(CC(F)F)Nc1ncc2c(-c3ccc(CN4CCN(C)CC4)cc3)cc(C3CCC(O)CC3)n2n1 (stereo not drawn) [Compound 352] | ≤ 100 nM | ++ (“++” represents a ratio of between 10 and 100) | ≤ 100 nM
CNC(=O)c1cc(-c2cc([C@H]3CC[C@H](O)CC3)n3nc(N[C@@H](C)CC(F)(F)F)ncc23)cc(C)n1 [Compound 353] | ≤ 100 nM | +++ (“+++” represents a ratio of >100) | ≤ 100 nM
COC[C@H](C)Nc1ncc2c(-c3ccnc(N4CCOCC4)c3)cc([C@H]3CC[C@H](O)CC3)n2n1 [Compound 355] | ≤ 100 nM | + (“+” represents a ratio of >2.0 and <10) | ≤ 100 nM
OC1CCC(c2cc(-c3ccnc(N4CCOCC4)c3)c3cnc(NC4CCOC4)nn23)CC1 (stereo not drawn) [Compound 356] | ≤ 100 nM | ++ (“++” represents a ratio of between 10 and 100) | ≤ 100 nM
OC1CCC(c2cc(-c3ccnc(N4CCOCC4)c3)c3cnc(NCCC4CC4)nn23)CC1 (stereo not drawn) [Compound 359] | ≤ 100 nM | + (“+” represents a ratio of >2.0 and <10) | ≤ 100 nM
CNS(=O)(=O)c1ccc(-c2cc([C@H]3CC[C@H](O)CC3)n3nc(N[C@@H](C)CC(F)(F)F)ncc23)cn1 [Compound 360] | ≤ 100 nM | ++ (“++” represents a ratio of between 10 and 100) | ≤ 100 nM
O[C@H]1CC[C@H](c2cc(-c3ccnc(N4CCOCC4)c3)c3cnc(N[C@H]4CCOC4)nn32)CC1 [Compound 362] | ≤ 100 nM | ++ (“++” represents a ratio of between 10 and 100) | ≤ 100 nM
O[C@H]1CC[C@H](c2cc(-c3ccnc(N4CCOCC4)c3)c3cnc(NCCC(F)(F)F)nn32)CC1 [Compound 363] | ≤ 100 nM | + (“+” represents a ratio of >2.0 and <10) | ≤ 100 nM

The remaining lines, values ahead:

IC50 (MERTK) | FLT3/Mer ratio (FLT3 IC50/Mer IC50) (MERTK) | IC50 (TYRO3) | Structure (SMILES)
≤ 100 nM | +++ (“+++” represents a ratio of >100) | ≤ 100 nM | CC[C@H](C)Nc1ncc2c(-c3cncc(S(C)(=O)=O)c3)cc([C@H]3CC[C@H](O)CC3)n2n1 [Compound 119]
≤ 100 nM | +++ (“+++” represents a ratio of >100) | ≤ 100 nM | CC[C@H](C)Nc1ncc2c(-c3cncc(S(C)(=O)=O)c3)cc([C@H]3CC[C@@H](O)CC3)n2n1 [Compound 120]
≤ 100 nM | +++ (“+++” represents a ratio of >100) | ≤ 100 nM | C[C@@H](CC(F)(F)F)Nc1ncc2c(-c3ccnc(N4CCOCC4)c3)cc([C@H]3CC[C@H](O)CC3)n2n1 [Compound 346]
≤ 100 nM | +++ (“+++” represents a ratio of >100) | ≤ 100 nM | CC(C)Nc1ncc2c(-c3ccnc(N4CCOCC4)c3)cc([C@H]3CC[C@H](O)CC3)n2n1 [Compound 350]
≤ 100 nM | +++ (“+++” represents a ratio of >100) | ≤ 100 nM | CNc1cc(-c2cc([C@H]3CC[C@H](O)CC3)n3nc(N[C@@H](C)COC)ncc23)ccn1 [Compound 354]
≤ 100 nM | +++ (“+++” represents a ratio of >100) | ≤ 100 nM | COC[C@H](C)Nc1ncc2c(-c3ccnc(N4CCS(=O)(=O)CC4)c3)cc([C@H]3CC[C@H](O)CC3)n2n1 [Compound 357]
≤ 100 nM | +++ (“+++” represents a ratio of >100) | ≤ 100 nM | COC[C@H](C)Nc1ncc2c(-c3ccnc(OC4COC4)c3)cc([C@H]3CC[C@H](O)CC3)n2n1 [Compound 358]
≤ 100 nM | +++ (“+++” represents a ratio of >100) | ≤ 100 nM | CNOc1cc(-c2cc([C@H]3CC[C@H](O)CC3)n3nc(N[C@@H](C)COC)ncc23)ccn1 [Compound 361]
